Data as given in patent publication US20100189688A1, “Dose forms comprising VX-950 and their dosage regimen” (priority 2007, published 2010).
Values after ≈ are worked out from the molar mass of the structure shown. Values joined by “and” are separate entries in the source; they are usually repeats but may differ in a detail not shown here. Equal entries are not always repeated. Marks after values point to notes of the source that are not given here.

Experiments:
infectious virus = assay: Infectious virus assay; type: cell-based
[1] = system: hepatitis C virus (HCV) replicon; assay: HCV replicon cell assay; conditions: 48 h
HCV NS3/4A protease = HCV NS3/4A protease (Hepatitis C virus genotype 1a, UniProt P27958); assay: In vitro cleavage of TRIF by HCV NS3 protease; type: biochemical; conditions: 10 μM VX-950, tNS3 0-4 μM
Protocol: The 35S methionine labeled coupled in vitro transcription/translation product of TRIF protein (as a substrate) was incubated with increasing concentration of tNS3 protease enzyme ranging from 0-4 μM either in the presence (Circles) or absence (Squares) of 10 μM VX-950, followed by SDS-PAGE and exposure to phosphorimager.

WT-HCV protease-SEAP = conditions: SCID mice expressing WT-HCV protease-SEAP; cited from earlier work
[2] = in vivo
[3] = human, in vivo
Protocol: (§2) A dose escalation scheme was used that combined dose doubling and modified Fibonacci to be aggressive in the lower dose range and conservative in the higher dose range.
(§3) A pharmacokinetics analysis was performed using the statistical moment approach.

[4] = Predicted human liver exposure relative to replicon assay IC50/IC90; conditions: in the dose range studied
[5] = Single-dose escalation tolerance and pharmacokinetics study in healthy male volunteers (Example 3); conditions: single doses 25 mg to 1250 mg
Protocol: as §2, §3

HCV genotype 1 = assay: 14-day multiple-dose study in Hepatitis C positive subjects: plasma HCV RNA (Example 5); type: in vivo, human; conditions: for mean HCV RNA drop: 750 mg q8h
Protocol: Detection of HCV RNA can be done, e.g., by using the Roche COBAS TaqMan HCV/HPS assay, available from Roche molecular Diagnostics. Subjects (or patients) receiving 750 mg of VX-950 every eight hours for 14 days achieved a median reduction in HCV-RNA of greater than 4 log10 (i.e., 10,000-fold decrease) at the end of the treatment. […] See Example 5 and FIGS. 3-5.
(§1) All other 34 subjects completed the study.
The HCV positive subjects were tested post-treatment to monitor HCV RNA levels' return to baseline.

genotype 1 hepatitis C = assay: Phase 1b 14-day study of VX-950, VX-950/Peg-IFN-2a or Peg-IFN-2a followed by Peg-IFN-2a/RBV: HCV RNA and SVR (Example 9); conditions: for patients who achieved SVR: 14 days of VX-950 (alone or in combination with PEG-IFN) then PEG-IFN with RBV
clinical = conditions: male, human, in vivo, po
Protocol: as §2, §3

IFN-β promoter activity = assay: IFN-β promoter luciferase activity in Sendai virus stimulated Huh7 cells expressing HCV protease; conditions: 10 μM VX-950, Huh7 cells, Sendai virus stimulation, 16 hours post-infection
neopterin = assay: 14-day multiple-dose study: serum neopterin (ELISA)
[6] = Multiple-dose study (Example 5): tolerability and VX-950 plasma trough levels; type: in vivo, human
Protocol: as §1
The assay for determined VX-950 concentration in human plasma was performed by methods well known in the art. See, e.g., Wasley, A. et al., Semin. Liver Dis., 20:1-16, 2000; Alter, H. J. et al., Semin. Liver Dis., 20: 17-35, 2000; Brown, R. S. Jr. et al., Liver Transpl., 9: S10-S13, 2003; DeFrancesco, R. et al., Nature, 436(7053): 953-960, 2005; Bowen, D. G. et al., J. Hepatol., 42: 408-417, 2005; Hoofnagle, J. H., Hepatology, 36: S21-S29, 2002, Brown, R. S. Jr. et al., Nature, 436 (7053): 973-978, 2005; and Chisari, F. V., Nature, 436(7053): 930-932, 2005.
Sample Preparation: 100 μL of plasma and 100 μL of internal standard working solution (or acetonitrile for blank samples) were added to an extraction tube. After vortex mixing for 30 seconds, 500 μL of toluene was added and extraction was performed by vortex mixing for 30 seconds. After centrifugation at 3000 rpm at 4° C. for 5 minutes, the aqueous layer was frozen in a mixture of acetone and dry ice and the organic layer was transferred to another extraction tube. 50 μL of 2,2-dimethoxypropane was added and the samples were evaporated to dryness under nitrogen at approximately 30° C. The residue was re-dissolved in 300 μL of a mixture of heptane and acetone (90:10, v/v) [or a mixture of heptane and THF (80:20, v/v)] by vortex mixing for 60 seconds. […]

[7] = system: ALT (alanine aminotransferase); assay: 14-day multiple-dose study: serum ALT / AST levels; type: in vivo, human
Description: The serum alanine aminotransferase (ALT) level can be measured using commercially available methods. Mean ALT levels, elevated at baseline, decreased during dosing in all groups (FIG. 6). Mean ALT levels increased, returned toward baseline, in all dose groups during follow up.

HCV = conditions: monotherapy, fraction of cases; cited from earlier work
[8] = of the 8 subjects receiving 750 mg q8h
[9] = at the completion of the 14-day dosing period

Chain of HCV NS3/4A protease (P27958 1027-1208, other chains not shown): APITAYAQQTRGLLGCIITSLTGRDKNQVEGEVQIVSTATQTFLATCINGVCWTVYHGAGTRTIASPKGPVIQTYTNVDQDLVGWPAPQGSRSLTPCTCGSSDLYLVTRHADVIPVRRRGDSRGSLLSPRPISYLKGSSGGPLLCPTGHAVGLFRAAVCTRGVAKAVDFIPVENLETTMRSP

Work on `CCC[C@H](NC(=O)[C@@H]1[C@H]2CCC[C@H]2CN1C(=O)[C@@H](NC(=O)[C@@H](NC(=O)c1cnccn1)C1CCCCC1)C(C)(C)C)C(=O)C(=O)NC1CC1` [VX-950] yielded an IC50 (infectious virus) of 0.196 µg/mL (≈ 0.288 µM), an IC50 ([1]; read-out: IC50 in the replicon assay) of roughly 0.24 µg/mL (≈ 0.353 µM) and an IC90 ([1]; read-out: IC90 in the replicon assay) of roughly 0.476 µg/mL (≈ 0.7 µM). For the same compound, the “effect on in vitro cleavage of TRIF by NS3 protease” value (HCV NS3/4A protease) was “inhibits in vitro cleavage of TRIF”, the “effect on elevated ALT levels in an animal model” value (WT-HCV protease-SEAP) was “ameliorates elevated ALT levels” and the tolerability [2] was “well tolerated”. The oral bioavailability ([3]; po) was “orally bioavailable”, the “VX-950 eliminated unchanged in the urine” value ([3]; male) was “Less than 2%” and the “predicted average liver concentration as multiple of replicon assay IC50” value [4] was “up to 113 fold”. For the same compound, the “predicted average liver concentration as multiple of replicon assay IC90” value [4] was “up to 57 fold”, the “tolerability of single doses” value [5] was “well tolerated at all dose levels” and the “Maximum change from baseline in HCV RNA (log10 IU/mL): subjects in category >−1 to <0” value (HCV genotype 1; 450 mg q8h (n = 10)) was 0 n (%). The “Maximum change from baseline in HCV RNA (log10 IU/mL): subjects in category >−2 to ≦−1” value (HCV genotype 1; 450 mg q8h (n = 10)) was 0 n (%), the “Maximum change from baseline in HCV RNA (log10 IU/mL): subjects in category >−3 to ≦−2” value (HCV genotype 1; 450 mg q8h (n = 10)) was 1 (10.0) n (%) and the “Maximum change from baseline in HCV RNA (log10 IU/mL): subjects in category >−4 to ≦−3” value (HCV genotype 1; 450 mg q8h (n = 10)) was 7 (70.0) n (%). The “Maximum change from baseline in HCV RNA (log10 IU/mL): subjects in category >−5 to ≦−4” value (HCV genotype 1; 450 mg q8h (n = 10)) was 0 n (%), the “Maximum change from baseline in HCV RNA (log10 IU/mL): subjects in category ≧−5” value (HCV genotype 1; 450 mg q8h (n = 10)) was 2 (20.0) n (%) and the “median reduction in HCV-RNA” value (HCV genotype 1; 750 mg every eight hours, end of 14 days) was “greater than 4 log10”. For the same compound, the “Maximum change from baseline in HCV RNA (log10 IU/mL): subjects in category >−1 to <0” value (HCV genotype 1; 750 mg q8h (n = 8)) was 0 n (%), the “Maximum change from baseline in HCV RNA (log10 IU/mL): subjects in category >−2 to ≦−1” value (HCV genotype 1; 750 mg q8h (n = 8)) was 0 n (%) and the “Maximum change from baseline in HCV RNA (log10 IU/mL): subjects in category >−3 to ≦−2” value (HCV genotype 1; 750 mg q8h (n = 8)) was 0 n (%). For the same compound, the “Maximum change from baseline in HCV RNA (log10 IU/mL): subjects in category >−4 to ≦−3” value (HCV genotype 1; 750 mg q8h (n = 8)) was 3 (37.5) n (%), the “Maximum change from baseline in HCV RNA (log10 IU/mL): subjects in category >−5 to ≦−4” value (HCV genotype 1; 750 mg q8h (n = 8)) was 3 (37.5) n (%) and the “Maximum change from baseline in HCV RNA (log10 IU/mL): subjects in category ≧−5” value (HCV genotype 1; 750 mg q8h (n = 8)) was 2 (25.0) n (%). The “mean HCV RNA drop” value (HCV genotype 1; day 3) was 3.6 log10, the “mean HCV RNA drop” value (HCV genotype 1; day 14) was 4.3 log10 and the “Maximum change from baseline in HCV RNA (log10 IU/mL): subjects in category >−1 to <0” value (HCV genotype 1; 1250 mg q12h (n = 10)) was 0 n (%). The “Maximum change from baseline in HCV RNA (log10 IU/mL): subjects in category >−2 to ≦−1” value (HCV genotype 1; 1250 mg q12h (n = 10)) was 0 n (%), the “Maximum change from baseline in HCV RNA (log10 IU/mL): subjects in category >−3 to ≦−2” value (HCV genotype 1; 1250 mg q12h (n = 10)) was 1 (10.0) n (%) and the “Maximum change from baseline in HCV RNA (log10 IU/mL): subjects in category >−4 to ≦−3” value (HCV genotype 1; 1250 mg q12h (n = 10)) was 9 (90.0) n (%). For the same compound, the “Maximum change from baseline in HCV RNA (log10 IU/mL): subjects in category >−5 to ≦−4” value (HCV genotype 1; 1250 mg q12h (n = 10)) was 0 n (%), the “Maximum change from baseline in HCV RNA (log10 IU/mL): subjects in category ≧−5” value (HCV genotype 1; 1250 mg q12h (n = 10)) was 0 n (%) and the “drop in viral load in every patient” value (HCV genotype 1; all dose groups, during administration) was “at least 2 log10”. For the same compound, the “median reduction of HCV-RNA” value (HCV genotype 1; each of the other two dose groups (450 mg q8h, 1250 mg q12h), end of 14 days) was “greater than 2 log10”, the “effect on HCV replication in humans” value (HCV genotype 1; human, in vivo) was “effective in inhibiting HCV replication” and the “subjects with HCV RNA below the limit of detection (LLD 10 IU/mL)” value (HCV genotype 1; [8]) was 2. For the same compound, the “subjects with HCV RNA below the limit of quantitation (LLQ 30 IU/mL)” value (HCV genotype 1; [8]) was 4, the “subjects with a 3 log10 reduction in HCV-RNA” value (HCV genotype 1; within the first three days of treatment) was 26 of the 28 and the “reduction in HCV-RNA achieved by every subject” value (HCV genotype 1; within the first three days of treatment, all dose groups) was “greater than 2 log10”. The “SVR after a 2 week treatment of VX-950” value (genotype 1 hepatitis C; 2 week treatment) was “SVR was achieved in a patient”, the “HCV RNA levels at the last off-study follow-up day” value (genotype 1 hepatitis C; 12 weeks after the last on-study follow-up, patients who continued with Peg-IFN-2a/RBV) was “undetectable in all patients” and the antiviral activity (genotype 1 hepatitis C; 14 days) was “rapid and profound antiviral activity”. The “patients who achieved SVR” value (genotype 1 hepatitis C; treated for 24 weeks) was 7 of 10, the “patients who achieved SVR” value (genotype 1 hepatitis C; treated for 48 weeks) was 3 of 5 and the “patients in whom SVR was achieved” value (genotype 1 hepatitis C; 14 days of VX-950 optionally in combination with Peg-INF, followed by Peg-INF/RBV for an additional 22 or 46 weeks) was 10 of 15. The “decrease of HCV RNA levels, generally” value (genotype 1 hepatitis C; [9]) was “at least 2 log10”, the “decrease of HCV RNA levels, in some cases” value (genotype 1 hepatitis C; [9]) was “at least 4 log10” and the “patients with undetectable HCV RNA” value (genotype 1 hepatitis C; at week 12) was 5 of 7. The “patients with undetectable HCV RNA” value (genotype 1 hepatitis C; at week 24, all patients who received VX-950 (alone or with PEG-IFN)) was 15, the “Undetectable HCV RNA at 24-week off study peg-IFN-2a/RBV treatment” value (genotype 1 hepatitis C; group sizes N 7 / 8 / 4) was 7* N and the “Undetectable HCV RNA at 12 weeks follow-up after stopping peg-IFN-2a/RBV” value (genotype 1 hepatitis C; patients who stopped Peg-IFN-2a/RBV at week 24) was 2 of 4 and 2/4. The Tmax (clinical) was 3 h, the “effect on WT HCV protease mediated suppression of IFNβ promoter activation” value (IFN-β promoter activity) was “overcomes the WT HCVpro mediated suppression of IFNβ promoter activation” and the mean neopterin level (neopterin; 750 mg q8h, day 14 (baseline 10.48±0.84 nmol/L; ULN 7.7)) was 7.32 ± 0.48 nmol/L. For the same compound, the “effect on neopterin levels in vivo” value (neopterin; 14 days dosing) was “decreases”, the “tolerability of multiple doses” value ([6]; 450 mg, 750 mg or 1250 mg, 5 or 14 days) was “well tolerated at all dose levels” and the “trough levels of VX-950 in plasma” value ([6]; about 750 mg three times a day, every 8 hours, compared with other regimens) was “highest trough levels”. The “median ALT value” ([7]; 450 mg q8h, day 12, 5 out of 10 samples missing (range 25-125)) was 38 U/I, the “effect on ALT levels in vivo” value ([7]; 14 days dosing) was “decreases” and the “effect on AST (aspartate aminotransferase) levels” value ([7]; upon administration) was “decreased”.

For interferon alfa, the long term remission (HCV) is listed as roughly 25%.
